Laboratory results reported in patent US20220235065A1 (Epizyme, Inc., priority 2016, published 2022).
Structures can show the parent of a compound that is named as a salt.

Molecular target: T1, recombinant purified human EHMT2 913-1193 (Homo sapiens, UniProt Q96KQ7)
T1 construct: Recombinant purified human EHMT2 913-1193 (55 μM) synthesized by Viva was used for all experiments; purchased Viva
T1 sequence (Q96KQ7 913-1193): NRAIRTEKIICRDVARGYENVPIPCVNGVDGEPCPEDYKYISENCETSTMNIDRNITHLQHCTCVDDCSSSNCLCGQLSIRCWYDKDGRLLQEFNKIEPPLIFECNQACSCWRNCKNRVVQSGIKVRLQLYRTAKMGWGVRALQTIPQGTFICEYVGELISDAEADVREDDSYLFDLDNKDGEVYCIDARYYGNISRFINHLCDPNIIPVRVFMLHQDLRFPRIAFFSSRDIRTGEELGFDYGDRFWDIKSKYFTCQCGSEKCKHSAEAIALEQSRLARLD
Experiment: EHMT2 enzyme assay on histone peptide substrate (3H-SAM Flashplate)
Assay type: biochemical
Settings: read-out: EHMT2 PEP (IC50 μM)
Protocol: Recombinant purified human EHMT2 913-1193 (55 μM) synthesized by Viva was used for all experiments. Biotinylated histone peptides were synthesized by Biopeptide and HPLC-purified to >95% purity. Streptavidin Flashplates and seals were purchased from PerkinElmer and 384 Well V-bottom Polypropylene Plates were from Greiner. ^3H-labeled S-adenosylmethionine (3H-SAM) was obtained from American Radiolabeled Chemicals with a specific activity of 80 Ci/mmol. Unlabeled SAM and S-adenosylhomocysteine (SAH) were obtained from American Radiolabeled Chemicals and Sigma-Aldrich respectively. Flashplates were washed in a Biotek ELx-405 with 0.1% Tween. 384-well Flashplates and 96-well filter binding plates were read on a TopCount microplate reader (PerkinElmer). Compound serial dilutions were performed on a Freedom EVO (Tecan) and spotted into assay plates using a Thermo Scientific Matrix PlateMate (Thermo Scientific). Reagent cocktails were added by Multidrop Combi (Thermo Scientific).
General Procedure for EHMT2 Enzyme Assay on Histone Peptide Substrate.
10-point curves of test compounds were made on a Freedom EVO (Tecan) using serial 3-fold dilutions in DMSO, beginning at 2.5 mM (final top concentration of compound was 50 μM and the DMSO was 2%). A 1 μL aliquot of the inhibitor dilution series was spotted in a polypropylene 384-well V-bottom plate (Greiner) using a Thermo Scientific Matrix PlateMate (Thermo Scientific). The 100% inhibition control consisted of 1 mM final concentration of the product inhibitor S-adenosylhomocysteine (SAH, Sigma-Aldrich). Compounds were incubated for 30 minutes with 40 μL per well of 0.031 nM EHMT2 (recombinant purified human EHMT2 913-1193, Viva) in 1× assay buffer (20 mM Bicine [pH 7.5], 0.002% Tween 20, 0.005% Bovine Skin Gelatin and 1 mM TCEP). 10 μL per well of substrate mix comprising assay buffer, ^3H-SAM (3H-labeled S-adenosylmethionine, American Radiolabeled Chemicals, specific activity of 80 Ci/mmol), unlabeled SAM (American Radiolabeled Chemicals), and peptide representing histone H3 residues 1-15 containing C-terminal biotin (appended to a C-terminal amide-capped lysine, synthesized by Biopeptide and HPLC-purified to greater than 95% purity) were added to initiate the reaction (both substrates were present in the final reaction mixture at their respective Km values, an assay format referred to as “balanced conditions”). Reactions were incubated for 60 minutes at room temperature and quenched with 10 μL per well of 400 μM unlabeled SAM, then transferred to a 384-well streptavidin Flashplate (PerkinElmer) and washed in a Biotek ELx-405 well washer with 0.1% Tween after 60 minutes. 384-well Flashplates were read on a TopCount microplate reader (PerkinElmer).
IC50 curves were generated using triplicate wells per concentration of compound. The IC50 is the concentration of compound at which measured methylation is inhibited by 50% as interpolated from the dose response curves. IC50 values were calculated using a non-linear regression (variable slope-four parameter fit model) with by the following formula
where Top is fixed at 100% and Bottom is fixed to 0%, [I]=concentration of inhibitor, IC50=half maximal inhibitory concentration and n=Hill Slope.

SMILES | IC50 [µM]
CNc1cc(C)nc(Nc2ccc(OC)c(-c3nc4n(n3)CCNC4)c2)n1 [Compound 8, 2-N-(4-methoxy-3-[4H,5H,6H,7H-[1,2,4]triazolo[1,5-a]pyrazin-2-yl]phenyl)-4-N,6-dimethylpyrimidine-2,4-diamine hydrochloride] | > 10
CNc1cc(C)nc(Nc2cnc(OC)c(-n3cc(C4CCCN4)cn3)c2)n1 (centres unmarked) [Compound 188] | 0.1 to 1
CNc1cc(C)nc(Nc2ccc(OC)c(-c3cn4c(n3)CNCC4)c2)n1 [Compound 7] | 1 to 10
CNc1cc(C)nc(Nc2ccc(OC)c(-n3cc(C(NC)C(F)(F)F)nn3)c2)n1 (centres unmarked) [Compound 165] | > 10
CNc1ccnc(Nc2ccc(OC)c(-n3cc(CN(C)C)nn3)c2)n1 [Compound 171] | < 0.1
CNc1ccnc(Nc2ccc(OC)c(-n3cc(C4COC4)nn3)c2)n1 [Compound 177] | > 10
CNc1ccnc(Nc2ccc(OC)c(-c3cc4[nH]ncc4cn3)c2)n1 [Compound 174] | > 10
CNCc1cnn(-c2cc3nc(NC)cc(C4CCOCC4)c3cc2OC)c1 [Compound 184] | 0.1 to 1
CNc1ccnc(Nc2ccc(OC)c(-c3ccc4cc[nH]c4c3)c2)n1 [Compound 178] | > 10
CNc1ccnc(Nc2ccc(OC)c(-c3cc4[nH]ccc4cn3)c2)n1 [Compound 175, N2-(4-methoxy-3-(1H-pyrrolo[3,2-c]pyridin-6-yl)phenyl)-N4-methylpyrimidine-2,4-diamine] | < 0.1
CNc1ccnc(Nc2ccc(OC)c(-n3cc(CNCC4CC4)nn3)c2)n1 [Compound 173] | 1 to 10
CNc1cc(C)nc(Nc2ccc(OC)c(-c3cn4c(n3)CN(C)CC4)c2)n1 [Compound 6] | > 10
CNc1cc(C)nc(Nc2ccc(OC)c(-n3cc(CN(C)C)c(C)n3)c2)n1 [Compound 160] | < 0.1
CNc1ccnc(Nc2ccc(OC)c(-n3cc(CNC4CCC4)nn3)c2)n1 [Compound 191] | 1 to 10

More lines, now with the values ahead:

IC50 [µM] | SMILES
< 0.1 | CNC1=Nc2cc(-c3[nH]c4cnccc4c3C)c(OC)cc2C12CCC2 [Compound 238, 5′-methoxy-N-methyl-6′-(3-methyl-1H-pyrrolo[2,3-c]pyridin-2-yl)spiro[cyclobutane-1,3′-indol]-2′-amine]
> 10 | CNc1cc(C)nc(Nc2ccc(OC)c(-c3cn4ccnc4cn3)c2)n1 [Compound 234]
> 10 | CNc1cc(C)nc(Nc2ccc(Cl)c(C(=O)Nc3cccnc3)c2)n1 [Compound 240]
> 10 | CNc1cc(C)nc(Nc2ccc(OC)c(-c3ccc4c(c3)NC(=O)C4)c2)n1 [Compound 218]
< 0.1 | CNc1cc(C)nc(Nc2ccc(OC)c(-c3cc4[nH]c(C)cc4cn3)c2)n1 [Compound 207]
1 to 10 | CNc1cc(-c2cc(Nc3nc(C)cc(NC)n3)ccc2OC)ncn1 [Compound 225]
1 to 10 | CNc1cc(C)nc(Nc2ccc(OC)c(-c3cc4[nH]cnc4cn3)c2)n1 [Compound 210]
< 0.1 | CNC1=Nc2cc(-c3cc4[nH]ccc4cn3)c(OC)cc2C12CCC2 [Compound 214]
0.1 to 1 | CNc1cc(C)nc(Nc2ccc(OC)c(-c3cc4[nH]ccc4cn3)c2F)n1 [Compound 221]
